Data taken from patent US7776826B2, “Method for fostering bone formation and preservation” (Unigene Laboratories, Inc., priority 2004, dated 2010).
Where no end group is shown, it is not given here.

What was measured:
Type in all cases: in vivo, rat
[1] = tested on: osteoporotic female Sprague-Dawley rats; test: Lumbar vertebral bone mineral density and bone formation rate in ovariectomized osteoporotic rats, without mechanical induction; conditions: OVX rats, 4 weeks subcutaneous treatment, no mechanical induction
Experimental: FIG. 15 is a bar graph comparing the Lumbar Vertebral Bone Mineral Density obtained in osteoporotic female Sprague-Dawley rats wherein the osteoporosis was induced via an ovariectomy. The rats were treated with (1) PTH[1-31]-NH2; (2) PTH[1-34]-NH2; and PTH[1-34]-OH; and
FIG. 16 is a bar graph comparing the Lumbar Vertebral Bone Formation Rate obtained in osteoporotic female Sprague-Dawley rats wherein the osteoporosis was induced via an ovariectomy. The rats were treated with (1) PTH[1-31]-NH2; (2) PTH[1-34]-NH2; and PTH[1-34]-OH.
A series of experiments was performed comparing (1) lumbar vertebral bone mineral density, and (2) lumbar vertebral bone formation rate achieved with PTH[1-31]-NH2 and PTH[1-34]-OH compared to the preferred PTH[1-34]-NH2 analog discussed above in the absence of the mechanical induction step of the invention. The study involved a four-week treatment of female Sprague-Dawley rats at 10 months of age, and 6 months post-ovariectomy (“OVX”), which induces osteoporosis, with one of the three above-noted parathyroid hormone truncates. The rats were randomized into the following groups: sham OVX, OVX+ vehicle, OVX+PTH [1-31]-NH2 or PTH [1-34]-NH2 (obtained from Unigene Laboratories, Inc.) at 2.5, 10 or 40 μg/kg/day subcutaneous, or PTH[1-34]-OH (obtained from Bachem) at 10 μg/kg/day subcutaneous. After 4 weeks of treatment, the right femur of each animal was analyzed by DEXA and bone histomorphometry. FIG. 15 is a bar graph providing a comparison of the lumbar vertebral bone mineral density achieved with PTH[1-31]-NH2, PTH[1-34]-NH2 and PTH[1-34]-OH. FIG. 16 is a bar graph comparing the lumbar vertebral formation rates achieved with these same truncates. […] Because of the similarity of anabolic action among the above-discussed parathyroid hormones, it is therefore reasonable to expect that all known PTH analogs will advantageously function in the desired manner in the method of the present invention.

[2] = tested on: Male Sprague-Dawley rats; test: High resolution radiograms of left and right femurs, Groups K-R; conditions: left femur with bmx, agent daily for 21 days
Text: (§1) FIG. 10 (a-b) presents high resolution radiograms of the left and right femurs, respectively, from an additional series of experiments on additional groups of male Sprague-Dawley rats (6 rats per group) aged 9 weeks which were sacrificed and tested after 21 days (3 weeks). The various groups were subjected to the following treatment modalities: Group K—control day 0; Group L—control day 21; Group M—bone marrow ablation (bmx) day 0; Group N—sham day 21; Group O— bmx+phosphate buffer saline (PBS) daily for 21 days; Group P—bmx+PTH[1-34]-NH2 daily for 21 days; Group Q—bmx+ parathyroid hormone related peptide (PTHRP) daily for 21 days; and Group R—bmx+rat α-calcitonin gene related peptide (CGRP) daily for 21 days;
FIG. 10 (a-b) presents a set of high resolution radiograms of the entire left and right femurs of additional (to those described above) groups of rats, injected daily for a designated term with one or more of the following agents: phosphate buffer saline (PBS); parathyroid hormone (PTH[1-34]-NH2); parathyroid hormone related peptide (PTHrP); and calcitonin gene related peptide (CGRP). The rats chosen for test subjects were subjected to the following treatment modalities (as indicated in the lower left corner of each of the radiograms): control day 0; control day 21; bone marrow ablation (bmx) day 0; sham day 21; bmx followed by injection of PBS buffer daily for 21 days; bmx followed by injection of PTH daily for 21 days; bmx followed by injection of PTHrP daily for 21 days; and bmx followed by injection of CGRP daily for 21 days.
As shown by FIG. 10(a), the best results, i.e., the greatest bone density, was obtained in the left femur wherein the effect of the bone marrow ablation overlapped with that attributable to the administration of the various anabolic agents. As in the case of FIG. 3, the lighter, i.e, more radio-opaque, areas indicate the locations of the greatest additional bone growth.

[3] = tested on: Male Sprague-Dawley rats; test: Serum osteocalcin concentration at day 21, Groups K-R; conditions: for osteocalcin level, in words: bmx + agent daily for 21 days; for Osteocalcin mean: bmx rats, day 21, agent daily for 21 days, Groups K-R
Text: FIG. 12 provides a measurement of the serum osteocalcin concentration (in ng/ml) in the blood of the rats in Groups K-R when the rats were sacrificed 21 days after commencement of treatment. The meaning of the abbreviated terms is the same as in FIGS. 10 and 11. […] [*=p value<0.05, while **=p value<0.01];
FIG. 12 is a bar graph which sets forth the osteocalcin levels determined, at the time of sacrifice, in the blood serum of the rats which were the subject of the analyses illustrated in FIGS. 10 and 11. As indicated above, it is well known that osteocalcin is a biochemical marker indicative of new bone growth.
The table additionally includes the standard deviations for the values obtained for each analysis, which standard deviations are also included in FIG. 12.

[4] = tested on: Male Sprague-Dawley rats; test: pQCT analysis of left and right femoral shafts at day 21, Groups K-R; conditions: for Left femoral shaft Total density mean / Left femoral shaft Trabecular density mean: ablated femur; for Left femoral shaft Total density mean / Left femoral shaft Trabecular density mean / Right femoral shaft Total density mean / Right femoral shaft Trabecular density mean: day 21, agent daily for 21 days, Groups K-R; for trabecular bone density of left femoral shaft, in words: bmx, day 21; for Right femoral shaft Total density mean / Right femoral shaft Trabecular density mean: non-ablated femur
Text: as §1
FIG. 11 (a-d) are graphical representations of the results of Peripheral Quantitative Computerized Tomography (PQCT) analyses of, respectively, the left (ablated) and right (non-ablated) femoral shafts of the rats from Groups K-R (see description of FIG. 10). FIGS. 11(a) and 11(b) illustrate the trabecular bone density observed in, respectively the left and right femoral shafts at day 21; whereas, FIGS. 11(c) and 11(d) illustrate the total bone density of, respectively, the left and right femoral shafts at the same interval. The meanings of the abbreviations used in FIGS. 11(a-d) are identical to those described above with regard to FIG. 10. […] [+=p value<0.01 vs. sham; *=p value<0.01 vs. bmx+PTH; **=p value<0.01 vs. bmx+PTH; and #=p value<0.05 vs. PBS];
An additional series of experiments was thereafter carried out with additional groups of rats (K-R) in order to (1) measure the effect of additional bone anabolic agents, i.e., other than parathyroid hormone (PTH[1-34]-NH2) and calcitonin, as well as to compare the effect(s) achieved with such parathyroid hormone with those obtained with the use of alternate anabolic agents, including parathyroid hormone related peptide (PTHrP) and calcitonin gene related peptide (CGRP). As in the case of the analyses discussed above with regard to FIGS. 3-9, in the animals tested only the left femur underwent the bone marrow ablation (bmx) procedure, i.e., there was no ablation of the right femur. Thus, as noted above, any views of the right femur in the figures described below indicating bone marrow ablation (bmx) as a treatment modality should be taken to mean that such treatment was applied to the corresponding left femur. Further, as was additionally the case above, the samples described below with regard to FIGS. 10-13 were taken from the femur shafts, rather than the corresponding distal epiphysis as in the case of FIGS. 1 and 2. The figures discussed below depict the results of end-point studies wherein the measurements were taken only at the 21 day end-point.
FIG. 11 (a-d) graphically illustrates, by means of a bar graph, the improvements in trabecular bone density and, to some extent, total bone density, in the left femoral shaft of rats subjected to the treatment modalities described above with regard to FIG. 10 (a-b); that is, control day 0; bmx day 0; control day 21; sham day 21; bmx+PBS on day 21; bmx+PTH on day 21; bmx+PTHrP on day 21; and bmx+CGRP on day 21. Again, this is attributable that (only) the left femur was subjected to the bmx treatment, and thus was the only femur wherein the effects of such bmx treatment overlapped with that of the systemic treatment with the bone anabolic agent. […] In contrast to the values obtained for the left femur, no significant amount of bone was formed in the right femur, notwithstanding whether it is trabecular bone density or total bone density which is being measured. This lack of new bone is, furthermore, attributable to the fact that the right femur had not been subjected to the bone marrow ablation (bmx) treatment.

[5] = tested on: Male Sprague-Dawley rats; test: MicroCT analysis of femoral shafts, Groups K-R; conditions: left femoral shaft with bmx, agent for 21 days
Text: FIG. 13(a-b) illustrate the results of Micro Computerized Tomography (MicroCT) analysis of the left (ablated) and right (non-ablated) femoral shafts of the rats of Groups K-R. The abbreviations are the same as those used in FIGS. 10-12;
FIG. 13 (a-b) provides a comparison between Micro Computerized Tomography (MicroCT) analyses of bone samples taken from the left femoral shaft (FIG. 13a) and the right femoral shaft (FIG. 13b) of rats treated in the manner indicated in FIGS. 10-12. As in the other cases discussed above, the most significant amount of new bone growth is found in the shaft of the left femur, since this shaft was subjected to the bmx treatment. […] In contrast, the right femoral shaft sections show very little or no increase in bone growth at all.

| Compound | bone anabolic activity (lumbar vertebral bone mineral density and bone formation rate) [1] | bone density on radiograms, in words [2] | osteocalcin level, in words [3] | Osteocalcin mean [3] | Left femoral shaft Total density mean [4] | Left femoral shaft Trabecular density mean [4] | trabecular bone density of left femoral shaft, in words [4] | Right femoral shaft Total density mean [4] | Right femoral shaft Trabecular density mean [4] | new bone growth in MicroCT, in words [5] |
| --- | --- | --- | --- | --- | --- | --- | --- | --- | --- | --- |
| CC[C@H](C)[C@H](NC(=O)[C@H](CCC(=O)O)NC(=O)[C@H](CO)NC(=O)[C@@H](NC(=O)[C@@H](N)CO)C(C)C)C(=O)N[C@@H](CCC(N)=O)C(=O)N[C@@H](CC(C)C)C(=O)N[C@@H](CCSC)C(=O)N[C@@H](Cc1cnc[nH]1)C(=O)N[C@@H](CC(N)=O)C(=O)N[C@@H](CC(C)C)C(=O)NCC(=O)N[C@@H](CCCCN)C(=O)N[C@@H](Cc1cnc[nH]1)C(=O)N[C@@H](CC(C)C)C(=O)N[C@@H](CC(N)=O)C(=O)N[C@@H](CO)C(=O)N[C@@H](CCSC)C(=O)N[C@@H](CCC(=O)O)C(=O)N[C@@H](CCCN=C(N)N)C(=O)N[C@H](C(=O)N[C@@H](CCC(=O)O)C(=O)N[C@@H](Cc1c[nH]c2ccccc12)C(=O)N[C@@H](CC(C)C)C(=O)N[C@@H](CCCN=C(N)N)C(=O)N[C@@H](CCCCN)C(=O)N[C@@H](CCCCN)C(=O)N[C@@H](CC(C)C)C(=O)N[C@@H](CCC(N)=O)C(=O)N[C@@H](CC(=O)O)C(=O)N[C@H](C(=O)N[C@@H](Cc1cnc[nH]1)C(=O)N[C@@H](CC(N)=O)C(=O)N[C@@H](Cc1ccccc1)C(=O)O)C(C)C)C(C)C [PTH[1-34]-OH, reference compound] | substantially equivalent | – | – | – | – | – | – | – | – | – |
| PTH[1-31]-NH2 (SVSEIQLMHNLGKHLNSMERVEWLRKKLQDV-NH2; UniProt P01270 32-62, looked up, fragment) [amidated parathyroid hormone truncate obtained from Unigene Laboratories] | substantially equivalent | – | – | – | – | – | – | – | – | – |
| parathyroid hormone related peptide [PTHRP] | – | satisfactory results | Significant new bone growth | 124.2 ng/mL | 1017.9 mg/mL | 403.1 mg/mL | significantly improved | 858.2 mg/mL | 122.4 mg/mL | significant degree of improvement |
| rat α-calcitonin gene related peptide [CGRP] | – | satisfactory results | no increase | 97 ng/mL | 963.5 mg/mL | 283.5 mg/mL | significantly improved | 831.1 mg/mL | 115.5 mg/mL | new bone growth, although lesser in scope |
